# From article PMC4222048 (European journal of pharmacology, 2014)
# Numbering of substitutions follows the chain as printed. Counter-ions that a name gives are not always drawn. Like-named read-outs stand apart in the source and are kept apart here.
# Assays:
# human K2P18.1 = biological target: T1, human K2P18.1 (Homo sapiens, UniProt Q7Z418); assay: Thallium-flux assay, HEK293 cells transfected with human K2P18.1; format: cell-based; conditions: for K2P18.1 Minimum Activity: fitted minimum, fixed at 0 where indicated
# T1 sequence (Q7Z418 1-384): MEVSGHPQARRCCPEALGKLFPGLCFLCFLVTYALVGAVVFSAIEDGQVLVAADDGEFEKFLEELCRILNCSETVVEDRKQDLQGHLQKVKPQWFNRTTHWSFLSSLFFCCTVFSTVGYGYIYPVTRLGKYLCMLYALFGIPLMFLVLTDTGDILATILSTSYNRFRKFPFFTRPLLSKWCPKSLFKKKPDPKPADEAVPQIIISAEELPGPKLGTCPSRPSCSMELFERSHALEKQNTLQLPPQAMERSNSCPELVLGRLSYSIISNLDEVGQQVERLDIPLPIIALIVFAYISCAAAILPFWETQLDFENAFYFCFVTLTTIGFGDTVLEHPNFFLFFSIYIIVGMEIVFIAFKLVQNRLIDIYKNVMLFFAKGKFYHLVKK
# K2P9.1 [1] = biological target: T2, K2P9.1 (Homo sapiens, UniProt Q9NPC2); assay: Thallium-flux counter assay, tetracycline induced HEK293-K2P9.1 cells; format: cell-based; conditions: for K2P9.1 Maximum Activity: dash = lack of compound activity
# K2P9.1 [2] = biological target: T2, K2P9.1; assay: Whole-cell patch clamp, tetracycline induced HEK293-K2P9.1 cells; format: cell-based
# [3] = biological target: T3, wild type K2P18.1 (wtK2P18.1) (Homo sapiens, UniProt Q7Z418); assay: Whole-cell patch clamp, HEK293-wtK2P18.1; format: cell-based
# T3 sequence (Q7Z418 1-384): T1 sequence (Q7Z418 1-384)
# [4] = biological target: T4, F145A/F352A double mutant K2P18.1 (mutK2P18.1) (Homo sapiens, UniProt Q7Z418, F145A/F352A); assay: Whole-cell patch clamp, HEK293-mutK2P18.1; conditions: read-out: inhibition of mutK2P18.1 current
# T4 sequence (Q7Z418 1-384 F145A/F352A): T1 sequence (Q7Z418 1-384) with F145A, F352A
# [5] = biological target: T4, F145A/F352A double mutant K2P18.1 (mutK2P18.1); assay: Thallium-flux assay, F145A/F352A double mutant K2P18.1 in HEK293 cells; format: cell-based
# mouse K2P18.1 = conditions: 1 mM; ref Kim et al., 2013; cited from earlier work
# [6] = tested on: F156A/F364A double mutant mouse K2P18.1; conditions: 1 mM; ref Kim et al., 2013; cited from earlier work
# [7] = read-out: K2P9.1 IC50, validation assay, Tl+ flux, HEK293-K2P9.1, highest 30 μM
# [8] = validation assay, Tl+ flux, activators
# [9] = read-out: inhibition of wtK2P18.1 current
# [10] = read-out: K2P18.1 EC50, validation assay, Tl+ flux, activators, highest 30 μM
# [11] = read-out: K2P9.1 EC50, validation assay, Tl+ flux, activators, highest 30 μM
# T2 sequence (Q9NPC2 whole entry): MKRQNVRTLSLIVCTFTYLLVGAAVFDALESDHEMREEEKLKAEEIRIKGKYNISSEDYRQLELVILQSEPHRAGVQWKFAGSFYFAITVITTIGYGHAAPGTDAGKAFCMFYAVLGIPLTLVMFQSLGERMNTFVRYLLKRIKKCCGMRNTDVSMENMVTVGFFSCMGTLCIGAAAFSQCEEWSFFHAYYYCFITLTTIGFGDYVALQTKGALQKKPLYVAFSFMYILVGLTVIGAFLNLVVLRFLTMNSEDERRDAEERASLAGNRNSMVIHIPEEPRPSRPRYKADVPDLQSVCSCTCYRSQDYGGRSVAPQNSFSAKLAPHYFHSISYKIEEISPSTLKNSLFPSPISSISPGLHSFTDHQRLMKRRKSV
compound,measurement,setting,value
Cl.Cl.Fc1ccc(C(OCCN2CCN(CCCc3ccccc3)CC2)c2ccc(F)cc2)cc1 [GBR-12909 dihydrochloride],K2P18.1 Minimum Activity,"human K2P18.1; validation assay, Tl+ flux",0 (fixed) %
same,IC50,K2P9.1 [1]; [7],> 30 µM
COCC(=O)O[C@]1(CCN(C)CCCc2nc3ccccc3[nH]2)CCc2cc(F)ccc2[C@@H]1C(C)C [Mibefradil dihydrochloride],K2P18.1 Minimum Activity,"human K2P18.1; validation assay, Tl+ flux",11.9 (± 2.04) %
CN(C)c1cc2c(Nc3ccc4c(cnn4Cc4ccccc4)c3)ncnc2cn1 [GW2974],K2P18.1 Minimum Activity,"human K2P18.1; validation assay, Tl+ flux",0 (fixed) %
C/C=C1\C(=O)C[C@H]2[C@@H]3CCC4=CC(=O)CC[C@]4(C)[C@H]3CC[C@]12C [(Z)-Gugglesterone],K2P18.1 Minimum Activity,"human K2P18.1; validation assay, Tl+ flux",0 (fixed) %
same,IC50,K2P9.1 [1]; [7],> 30 µM
COc1cc([C@@H]2c3cc4c(cc3[C@H](O)[C@H]3COC(=O)[C@H]23)OCO4)cc(OC)c1OC [Podophyllotoxin],IC50,human K2P18.1,7.32 µM
same,K2P18.1 Minimum Activity,"human K2P18.1; validation assay, Tl+ flux",0 (fixed) %
same,IC50,K2P9.1 [1],> 30 µM
"Cc1c(CC(C)(C)C(=O)O)n(Cc2ccc(Cl)cc2)c2ccc(F)cc12 [L-655,240]",K2P18.1 Minimum Activity,"human K2P18.1; validation assay, Tl+ flux",0 (fixed) %
same,IC50,K2P9.1 [1]; [7],> 30 µM
CC(C)c1ccc2c(c1)c(SC(C)(C)C)c(CC(C)(C)C(=O)O)n2Cc1ccc(Cl)cc1 [MK-886],K2P18.1 Minimum Activity,"human K2P18.1; validation assay, Tl+ flux",23.5 (± 6.6) %
same,IC50,K2P9.1 [1]; [7],> 30 µM
CN1CCN(C2Cc3ccccc3Sc3ccc(Cl)cc32)CC1.O=C(O)/C=C\C(=O)O (racemic) [(±)-Octoclothepin maleate],K2P18.1 Minimum Activity,"human K2P18.1; validation assay, Tl+ flux",0 (fixed) %
"C[N+](C)(C)CCOC(N)=O [Carbachol, carbamoylcholine chloride, (2-Hydroxyethyl)trimethyl-ammonium chloride carbamate]",EC50,human K2P18.1,1.59 µM
same,K2P18.1 Maximum Activity,human K2P18.1; [8],190 (± 9.96) %
same,EC50,K2P9.1 [1],> 30 µM
same,K2P9.1 Maximum Activity,K2P9.1 [1]; [8],-
CCOC(=O)N1CCC(=C2c3ccc(Cl)cc3CCc3cccnc32)CC1 [Loratadine],K2P18.1 Minimum Activity,"human K2P18.1; validation assay, Tl+ flux",0 (fixed) %
same,IC50,K2P9.1 [2],5.27 ± 1.69 µM
same,IC50,[3],0.49 ± 0.23 µM
same,selectivity for K2P18.1 over K2P9.1,[3]; from patch clamp IC50 values,~ 11 fold
same,inhibition at 10 µM,[3]; [9],87.5 ± 3.7%
same,inhibition at 10 µM,[4],3.9 ± 13.3%
same,inhibition at 150 µM,"[5]; HEK293, read-out: inhibition against mutK2P18.1",< 50%
same,lower potency against mutK2P18.1 compared to wtK2P18.1,[5]; Tl+ flux,at least 50 fold
Cn1c(=O)c2c(nc(C=Cc3cccc(Cl)c3)n2C)n(C)c1=O [8-(3-Chlorostyryl)caffeine],K2P18.1 Minimum Activity,"human K2P18.1; validation assay, Tl+ flux",0 (fixed) %
same,IC50,K2P9.1 [1],> 30 µM
Oligomycin A,K2P18.1 Minimum Activity,"human K2P18.1; validation assay, Tl+ flux",52.0 (± 4.21) %
CC(=O)OC(C)C[N+](C)(C)C.[Cl-] (stereo not drawn) [Acetyl-beta-methylcholine chloride],EC50,human K2P18.1; [10],0.65 µM
same,K2P18.1 Maximum Activity,human K2P18.1; [8],184 (± 2.38) %
same,EC50,K2P9.1 [1]; [11],> 30 µM
same,K2P9.1 Maximum Activity,K2P9.1 [1]; [8],-
COC(=O)C1=CCCN(C)C1 [Arecoline hydrobromide],EC50,human K2P18.1,2.7 µM
same,K2P18.1 Maximum Activity,human K2P18.1; [8],155 (± 10.8) %
same,EC50,K2P9.1 [1],> 30 µM
same,K2P9.1 Maximum Activity,K2P9.1 [1]; [8],-
"CCN(CC)CC(=O)Nc1c(C)cccc1C [lidocaine, 2-Diethylamino-N-(2,6-dimethylphenyl)acetamide]",IC50,"human K2P18.1; IC50 for K2P18.1 inhibition without carbachol, Tl+ flux, absence of carbachol",3650 ± 380 µM
same,inhibition at 1000 µM,[3]; [9],65.2 ± 10.4%
same,inhibition at 1000 µM,[4],18.2 ± 5.8%
same,inhibition of wild type mouse K2P18.1,mouse K2P18.1,83 ± 5%
same,IC50,[5],11600 ± 7100 µM
same,inhibition of F156A/F364A double mutant mouse K2P18.1,[6],20 ± 15%
CC(=O)c1c(O)c(C)c(O)c(Cc2c(O)c3c(c(C(=O)/C=C/c4ccccc4)c2O)OC(C)(C)C=C3)c1O [Rottlerin],IC50,human K2P18.1,16.2 µM
same,K2P18.1 Minimum Activity,"human K2P18.1; validation assay, Tl+ flux",17.2 (± 42.4) %
same,IC50,K2P9.1 [1],> 30 µM
CCCCCCCCCCCCCC(=O)O[C@@H]1[C@@H](C)[C@@]2(O)[C@@H](C=C(CO)C[C@]3(O)C(=O)C(C)=C[C@@H]23)[C@@H]2C(C)(C)[C@]12OC(C)=O [Phorbol 12-myristate 13-acetate],EC50,human K2P18.1,0.03 µM
same,K2P18.1 Maximum Activity,human K2P18.1,130 (± 2.01) %
same,EC50,K2P9.1 [1],> 30 µM
same,K2P9.1 Maximum Activity,K2P9.1 [1]; [8],-
"CC1OCC(C[N+](C)(C)C)O1.[I-] (single isomer, unassigned; (+)) [(+)-cis-Dioxolane iodide]",EC50,human K2P18.1; [10],0.04 µM
same,K2P18.1 Maximum Activity,human K2P18.1; [8],165 (± 3.00) %
same,EC50,K2P9.1 [1]; [11],> 30 µM
same,K2P9.1 Maximum Activity,K2P9.1 [1]; [8],-
CC[C@H](C)C(=O)O[C@H]1CCC=C2C=C[C@H](C)[C@H](CC[C@@H]3C[C@@H](O)CC(=O)O3)[C@H]21 [Mevastatin],K2P18.1 Minimum Activity,"human K2P18.1; validation assay, Tl+ flux",13.7 (± 7.6) %
same,IC50,K2P9.1 [1],> 30 µM
C[C@@H]1O[C@H](C[N+](C)(C)C)CS1.[I-] [OXA-22 Iodide],EC50,human K2P18.1; [10],0.06 µM
same,K2P18.1 Maximum Activity,human K2P18.1; [8],166 (± 4.50) %
same,EC50,K2P9.1 [1]; [11],> 30 µM
same,K2P9.1 Maximum Activity,K2P9.1 [1]; [8],-
"Ic1ccccc1CNC1C2CCN(CC2)C1C(c1ccccc1)c1ccccc1.O=C(O)C(=O)O [L-703,606 oxalate]",K2P18.1 Minimum Activity,"human K2P18.1; validation assay, Tl+ flux",1.30 (± 9.2) %
CCCn1c(C)c(C(=O)c2cccc3ccccc23)c2ccccc21 [JWH-015],K2P18.1 Minimum Activity,"human K2P18.1; validation assay, Tl+ flux",26.7 (± 2.1) %
same,IC50,K2P9.1 [1]; [7],> 30 µM
"CCCCOC(=O)NS(=O)(=O)c1sc(CC(C)C)cc1-c1ccc(Cn2c(CC)nc3c(C)cc(C)nc32)cc1 [L-162,313]",K2P18.1 Minimum Activity,"human K2P18.1; validation assay, Tl+ flux",15.5 (± 12.5) %
same,IC50,K2P9.1 [1]; [7],> 30 µM
CCCC(=O)NCCc1c2n(c3ccc(OC)cc13)CCCc1ccccc1-2 [K185],K2P18.1 Minimum Activity,"human K2P18.1; validation assay, Tl+ flux",0 (fixed) %
same,IC50,K2P9.1 [1]; [7],> 30 µM
O=C(CCCN1CCC2(CC1)C(=O)NCN2c1ccccc1)c1ccc(F)cc1 [Spiperone Hydrochloride],EC50,human K2P18.1,3.02 µM
same,K2P18.1 Maximum Activity,human K2P18.1; [8],161 (± 4.90) %
same,EC50,K2P9.1 [1],> 30 µM
same,K2P9.1 Maximum Activity,K2P9.1 [1]; [8],-
COc1cc2c(cc1OC)-c1c/c(=N\c3c(C)cc(C)cc3C)n(C)c(=O)n1CC2 [Trequinsin hydrochloride],K2P18.1 Minimum Activity,"human K2P18.1; validation assay, Tl+ flux",3.90 (± 20.2) %
same,IC50,K2P9.1 [1],> 30 µM
Clc1ccc(C(c2ccc(Cl)cc2)n2cc[n+](CC(OCc3ccc(Cl)cc3Cl)c3ccc(Cl)cc3Cl)c2)cc1 (centres unmarked) [Calmidazolium chloride],K2P18.1 Minimum Activity,"human K2P18.1; validation assay, Tl+ flux",0 (fixed) %
same,IC50,K2P9.1 [1],> 30 µM
"CS(=O)(=O)O.Cc1c(C(=O)c2cccc3ccccc23)c2cccc3c2n1[C@H](CN1CCOCC1)CO3 [(R)-(+)-WIN 55,212–2 mesylate]",K2P18.1 Minimum Activity,"human K2P18.1; validation assay, Tl+ flux",25.6 (± 28.3) %
same,IC50,K2P9.1 [1]; [7],> 30 µM
Br.CO[C@H]1CC=C2CCN3CCC4=C(CC(=O)OC4)[C@]23C1 [Dihydro-beta-erythroidine hydrobromide],K2P18.1 Minimum Activity,"human K2P18.1; validation assay, Tl+ flux",0 (fixed) %
OCc1ccc(-c2nn(Cc3ccccc3)c3ccccc23)o1 [YC-1],K2P18.1 Minimum Activity,"human K2P18.1; validation assay, Tl+ flux",0 (fixed) %
same,IC50,K2P9.1 [1]; [7],> 30 µM
C[N+](C)(C)CC#CCN1CCCC1=O [Oxotremorine Methiodide],EC50,human K2P18.1,0.24 µM
same,K2P18.1 Maximum Activity,human K2P18.1; [8],171 (± 4.60) %
same,EC50,K2P9.1 [1],> 30 µM
same,K2P9.1 Maximum Activity,K2P9.1 [1]; [8],-
"COc1cccc(-c2cc(=O)c3ccccc3o2)c1N [PD98,059]",K2P18.1 Minimum Activity,"human K2P18.1; validation assay, Tl+ flux",22.9 (± 23.3) %
same,IC50,K2P9.1 [1]; [7],> 30 µM
